According to article PMC12186255, “Discovery and Characterization of Small Molecule Inhibitors Targeting Exonuclease 1 for Homologous Recombination-Deficient Cancer Therapy” (ACS Chemical Biology, 2025):
pIC50: −log10 of the molar value.

Columns and labels:
[1] = target: T1, FEN1 (Homo sapiens, UniProt P39748); experiment: Analogous FRET-based counter screen with purified FEN1; type: biochemical; conditions: FRET-based assay, maximum inhibitor concentration 100 μM
T1 construct: made in house
Procedure: Data were normalized by subtracting the relative fluorescence unit (RFU) of the blank sample from that of each EXO1-containing reaction. The relative activity of individual compounds was subsequently calculated by setting the corrected RFU of EXO1 with DMSO as 100% and comparing the corrected RFU for each condition to the DMSO value. Each assay was performed by sequentially adding experimental compounds, the EXO1 enzyme, and the DNA substrate to minimize starting differences. […] Following IC50 screening, an analogous FRET-based assay was performed using purified FEN1 to assess the EXO1 specificity of each compound.
For subsequent hit confirmation, 84 compounds from the primary screen were picked from our internal stock and subjected to a dose-dependent response assay starting at 100 μM with 3-fold serial dilution. To analyze the data from the dose-dependent response assay, IC50 values for each hit were calculated through nonlinear regression analysis using GraphPad Prism 10 (GraphPad Software, Inc.). […] Subsequently, a counter screen was performed to eliminate potential false-positive hits. To accomplish this, we established an analogous FRET assay using the purified FEN1 enzyme in place of EXO1.

[2] = target: T2, EXO1 (Homo sapiens, UniProt Q9UQ84); experiment: Inhibitor kinetics by FRET-based EXO1 assay (Michaelis-Menten, Lineweaver-Burk); type: biochemical; conditions: for V max: Michaelis–Menten plot; for mechanism of EXO1 inhibition: from Michaelis–Menten and Lineweaver–Burk plots
T2 construct: made in house
T2 sequence (Q9UQ84 1-846): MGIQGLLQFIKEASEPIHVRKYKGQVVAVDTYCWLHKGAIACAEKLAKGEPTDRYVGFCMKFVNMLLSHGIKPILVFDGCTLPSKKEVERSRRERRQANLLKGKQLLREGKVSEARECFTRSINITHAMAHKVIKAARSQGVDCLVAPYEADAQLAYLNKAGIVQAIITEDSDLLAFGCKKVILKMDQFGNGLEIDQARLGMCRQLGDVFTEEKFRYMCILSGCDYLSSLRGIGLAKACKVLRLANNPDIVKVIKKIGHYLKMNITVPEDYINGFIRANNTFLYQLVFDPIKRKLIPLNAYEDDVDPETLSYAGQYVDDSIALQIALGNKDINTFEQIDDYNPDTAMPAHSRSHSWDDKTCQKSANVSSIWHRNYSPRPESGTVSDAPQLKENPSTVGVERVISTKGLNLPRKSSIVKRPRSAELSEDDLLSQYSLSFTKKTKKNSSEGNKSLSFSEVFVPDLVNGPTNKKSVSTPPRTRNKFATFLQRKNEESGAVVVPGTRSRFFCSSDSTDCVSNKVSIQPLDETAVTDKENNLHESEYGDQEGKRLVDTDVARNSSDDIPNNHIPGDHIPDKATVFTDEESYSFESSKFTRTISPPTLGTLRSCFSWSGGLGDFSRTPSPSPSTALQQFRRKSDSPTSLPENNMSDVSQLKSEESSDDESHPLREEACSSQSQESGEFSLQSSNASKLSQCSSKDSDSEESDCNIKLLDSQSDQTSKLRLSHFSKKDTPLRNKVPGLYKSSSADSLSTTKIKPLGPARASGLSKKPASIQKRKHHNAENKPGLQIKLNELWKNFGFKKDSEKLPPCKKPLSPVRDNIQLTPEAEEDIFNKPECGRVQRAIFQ
From the text: We then calculated the initial velocity of enzyme activity by calculating the rate within the linear region of the time-dependent RFU.
The initial velocity of enzyme activity was obtained by calculating the rate of the linear region of the time-dependent RFU.

[3] = tested on: MDA-MB-436 cells; experiment: γ-H2AX immunofluorescence and Western blot (DSB burden); type: cell-based, human; conditions: MDA-MB-436 parental (BRCA1-deficient) cells, 10 or 50 μM, overnight/24 h
Procedure: (b) Quantification of the relative γ-H2AX per nucleus from panel a. […] The intensity of the γ-H2AX bands correlates with the level of DSBs observed in the immunofluorescence images in panel a. […] Strong γ-H2AX foci are observed, indicating an increased burden of DSBs. […] (e) Quantification of the relative γ-H2AX per nucleus is depicted in panel d. […] The intensity of the γ-H2AX bands correlates with the level of DSBs observed in the immunofluorescence images in panel d.
Cells were seeded at a density of 3× 10^5 cells per well in 12-well plates with preplaced coverslips and treated with or without various inhibitor treatments overnight. Cells were then incubated with EdU for 30 min before collection. For PARylation analysis, cells were permeabilized with 0.1% Triton X100, fixed with 4% paraformaldehyde, blocked with the Image-iT FX signal enhancer (Invitrogen), and incubated (1.5 h, RT) with the indicated primary antibodies (PAR/pADPr Antibody; Biotechne). […] The slides were then washed with the PBS buffer, counterstained with DAPI, and analyzed with a fluorescence microscope (Zeiss Observer Z1). […] The slides were then washed with the PBS buffer, incubated with the Click-iT reaction mix for EdU as aforementioned, counterstained with DAPI, and analyzed with a fluorescence microscope (Zeiss Observer Z1).

[4] = tested on: MDA-MB-468; experiment: Cell line drug profiling, CellTiter Glo; type: cell-based, human; conditions: Homo sapiens, MDA-MB-468, 72 h
Procedure: We tested the cytotoxicity of representative compounds from the seven EXO1i scaffolds against a subset of the NCI-60 cell line panel along with three additional pancreatic cell lines (FG, AsPC1, and CaPan2). In general, cells were seeded in 384-well tissue culture-treated plates overnight and treated with various concentrations of each hit compound (a serial 3-fold dilution from 50 μM for all tested hits). Each concentration was performed in duplicate. Cell viability was then measured by CellTiter Glo (Promega) after 72 h of treatment.

T1 sequence (P39748 whole entry): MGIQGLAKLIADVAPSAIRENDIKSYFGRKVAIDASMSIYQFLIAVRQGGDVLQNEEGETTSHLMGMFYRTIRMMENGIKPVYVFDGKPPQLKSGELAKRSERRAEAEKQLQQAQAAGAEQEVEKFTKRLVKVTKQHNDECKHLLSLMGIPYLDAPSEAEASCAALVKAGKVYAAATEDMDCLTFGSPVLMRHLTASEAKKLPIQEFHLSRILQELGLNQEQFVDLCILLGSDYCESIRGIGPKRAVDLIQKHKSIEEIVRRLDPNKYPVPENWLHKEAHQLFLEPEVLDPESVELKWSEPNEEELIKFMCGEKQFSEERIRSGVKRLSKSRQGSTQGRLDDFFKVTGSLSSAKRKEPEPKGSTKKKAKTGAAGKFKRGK

Row | SMILES | pIC50 [1] | V max ([2]; 2 μM C200) [min^–1] | mechanism of EXO1 inhibition [2] | pIC50 ([2]; kinetic assays, read-out: IC50 of each compound, used as fixed inhibitor concentration) | γ-H2AX levels (unresolved DSBs) [3] | pIC50 [4] | V max ([2]; […] μM F684) [min^–1]
1 | COC(=O)c1nc(-c2ccc(OC)cc2)nc(O)c1O [C200] | < 4.00 | 415.5 | uncompetitive mechanism | 5.70 | no effect | < 4.30 | 
2 | Cc1cccc(N2CCN(c3ccc(NS(=O)(=O)c4ccccc4)c(C(=O)O)c3)CC2)c1C [F684] | < 4.00 |  | uncompetitive mechanism |  | significant increase | 4.63 | 114.1
